Source: US20240383904A1, “HETEROCYCLIC COMPOUNDS” (Hoffmann-La Roche Inc., priority 2021, published 2024)

Target: T1, MAGL (Homo sapiens, UniProt Q99685)
T1 sequence (Q99685 1-303): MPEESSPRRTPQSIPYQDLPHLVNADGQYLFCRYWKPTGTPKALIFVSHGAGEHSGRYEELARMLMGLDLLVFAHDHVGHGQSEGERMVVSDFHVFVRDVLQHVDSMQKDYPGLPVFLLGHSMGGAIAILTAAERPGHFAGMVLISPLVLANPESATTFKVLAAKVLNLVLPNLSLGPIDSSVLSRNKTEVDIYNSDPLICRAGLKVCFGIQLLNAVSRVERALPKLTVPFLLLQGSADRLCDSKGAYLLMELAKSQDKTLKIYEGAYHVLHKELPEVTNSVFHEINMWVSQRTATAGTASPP
Test: 2-AG assay: MAGL inhibitory activity by hydrolysis of 2-arachidonoylglycerol to arachidonic acid, followed by mass spectrometry
Assay type: biochemical
Conditions: 15 min preincubation, 30 min reaction at RT, 8 μM 2-arachidonoylglycerol

Molecule	IC50 [nM]
O=C1NC2(CO1)CN(C(=O)N1CC3(C1)CN(S(=O)(=O)c1ccc(OC(F)(F)F)cc1)C3)C2 [Example 191, 2-[2-[4-(trifluoromethoxy)phenyl]sulfonyl-2,6-diazaspiro[3.3]heptane-6-carbonyl]-7-oxa-2,5-diazaspiro[3.4]octan-6-one]	30
CS(=O)(=O)c1ccc(CC2CCC3(C2)CN(C(=O)N2CC4(COCC(=O)N4)C2)C3)cc1 (stereo not shown) [Example 72, 2-[6-(4-mesylbenzyl)-2-azaspiro[3.4]octane-2-carbonyl]-8-oxa-2,5-diazaspiro[3.5]nonan-6-one]	98.2
O=C1COCC2(CN(C(=O)N3CC4(CC(Cc5cncc(C(F)(F)F)c5)C4)C3)C2)N1 [Example 173, 2-[6-[[5-(trifluoromethyl)-3-pyridyl]methyl]-2-azaspiro[3.3]heptane-2-carbonyl]-8-oxa-2,5-diazaspiro[3.5]nonan-6-one]	20.8
CS(=O)(=O)c1ccc(CC2CCC3(C2)CN(C(=O)N2CC4(COC(=O)N4)C2)C3)cc1 (stereo not shown) [Example 77, 2-[6-(4-mesylbenzyl)-2-azaspiro[3.4]octane-2-carbonyl]-7-oxa-2,5-diazaspiro[3.4]octan-6-one]	0.91
O=C1CCC2(CN(C(=O)N3CC4(CCN(Cc5cnc(C(F)(F)F)cn5)C4)C3)C2)N1 [Example 155, 2-[7-[[5-(trifluoromethyl)pyrazin-2-yl]methyl]-2,7-diazaspiro[3.4]octane-2-carbonyl]-2,5-diazaspiro[3.4]octan-6-one]	237
Cn1ncc(CC2CC3(C2)CN(C(=O)N2CC4(COCC(=O)N4)C2)C3)c1C(F)(F)F [Example 368, 2-[6-[[1-methyl-5-(trifluoromethyl)pyrazol-4-yl]methyl]-2-azaspiro[3.3]heptane-2-carbonyl]-8-oxa-2,5-diazaspiro[3.5]nonan-6-one]	4.11
O=C1CCC2(CN(C(=O)N3CC4(CCN(Cc5ccc(C(F)(F)F)cn5)CC4)C3)C2)N1 [Example 146, 2-[7-[[5-(trifluoromethyl)-2-pyridyl]methyl]-2,7-diazaspiro[3.5]nonane-2-carbonyl]-2,5-diazaspiro[3.4]octan-6-one]	10.9
O=C1COCC2(CN(C(=O)N3CC4(CCN(Cc5ccc(C(F)(F)F)cn5)C4)C3)C2)N1 [Example 241, 2-[7-[[5-(trifluoromethyl)-2-pyridyl]methyl]-2,7-diazaspiro[3.4]octane-2-carbonyl]-8-oxa-2,5-diazaspiro[3.5]nonan-6-one]	928
N=[S@](=O)(c1ccc(CC2CC3(C2)CN(C(=O)N2CC4(COC(=O)N4)C2)C3)cc1)C(F)(F)F [Example 359]	0.32
O=C1COCC2(CN(C(=O)N3CC4(CC(n5cnc(C6CC6)n5)C4)C3)C2)N1 [Example 227, 2-[6-(3-cyclopropyl-1,2,4-triazol-1-yl)-2-azaspiro[3.3]heptane-2-carbonyl]-8-oxa-2,5-diazaspiro[3.5]nonan-6-one]	1800
CS(=O)(=O)c1ccc(CC2CC3(C2)CN(C(=O)N2CC4(COC(=O)N4)C2)C3)cc1C(F)(F)F [Example 44, 2-[6-[4-mesyl-3-(trifluoromethyl)benzyl]-2-azaspiro[3.3]heptane-2-carbonyl]-7-oxa-2,5-diazaspiro[3.4]octan-6-one]	0.32
O=C1CCC2(CN(C(=O)N3CCC4(CC3)CN(Cc3ccc(C(F)(F)F)cc3F)C4)C2)N1 [Example 90, 2-[2-[2-fluoro-4-(trifluoromethyl)benzyl]-2,7-diazaspiro[3.5]nonane-7-carbonyl]-2,5-diazaspiro[3.4]octan-6-one]	19.1
Cn1cc(OC2CC3(C2)CN(C(=O)N2CC4(CCC(=O)N4)C2)C3)cn1 [Example 344, 2-[6-(1-methylpyrazol-4-yl)oxy-2-azaspiro[3.3]heptane-2-carbonyl]-2,5-diazaspiro[3.4]octan-6-one]	2450
O=C1COCC2(CN(C(=O)N3CC4(CC(Cc5cncc(S(=O)(=O)C(F)(F)F)c5)C4)C3)C2)N1 [Example 253, 2-[6-[[5-(trifluoromethylsulfonyl)-3-pyridyl]methyl]-2-azaspiro[3.3]heptane-2-carbonyl]-8-oxa-2,5-diazaspiro[3.5]nonan-6-one]	33.5
O=C1NCC2(CN(C(=O)N3CC4(CCC(Cc5ccc(OC(F)F)nc5)CC4)C3)C2)N1 [Example 128, 2-[7-[[6-(difluoromethoxy)-3-pyridyl]methyl]-2-azaspiro[3.5]nonane-2-carbonyl]-2,5,7-triazaspiro[3.4]octan-6-one]	51.9
O=C1COCC2(CN(C(=O)N3CC4(CC(Cc5ccc(C(F)(F)F)cc5F)C4)C3)C2)N1 [Example 145]	0.06
N=[S@@](=O)(c1ccc(CC2CC3(C2)CN(C(=O)N2CC4(CCCC(=O)N4)C2)C3)cc1)C(F)(F)F (single isomer, unassigned) [Example 284, 2-[6-[[4-(trifluoromethylsulfoni-midoyl)phenyl]methyl]-2-azaspiro[3.3]heptane-2-carbonyl]-2,5-diazaspiro[3.5]nonan-6-one]	120

Molecule	IC50 [nM]
O=C1CCC2(CN(C(=O)N3CC4(CC(Cn5ccc(C(F)(F)F)cc5=O)C4)C3)C2)N1 [Example 249, 2-[6-[[2-oxo-4-(trifluoromethyl)-1-pyridyl]methyl]-2-azaspiro[3.3]heptane-2-carbonyl]-2,5-diazaspiro[3.4]octan-6-one]	2.16
N=[S@@](=O)(c1ccc(CC2CC3(C2)CN(C(=O)N2CC4(CCC(=O)N4)C2)C3)cc1)C(F)(F)F [Example 286, 2-[6-[[4-(trifluoromethylsulfoni-midoyl)phenyl]methyl]-2-azaspiro[3.3]heptane-2-carbonyl]-2,5-diazaspiro[3.4]octan-6-one]	2.89
O=C1COCC2(CN(C(=O)N3CC4(CC(Cc5cnc(C(F)(F)F)cn5)C4)C3)C2)N1 [Example 138, 2-[6-[[5-(trifluoromethyl)pyrazin-2-yl]methyl]-2-azaspiro[3.3]heptane-2-carbonyl]-8-oxa-2,5-diazaspiro[3.5]nonan-6-one]	51
O=C1CCC2(CN(C(=O)N3CC4(CN(Cc5cn[nH]c5C(F)(F)F)C4)C3)C2)N1 [Example 316, 2-[6-[[5-(trifluoromethyl)-1H-pyrazol-4-yl]methyl]-2,6-diazaspiro[3.3]heptane-2-carbonyl]-2,5-diazaspiro[3.4]octan-6-one]	553
Cn1ncc(CC2CC3(C2)CN(C(=O)N2CC4(CCCC(=O)N4)C2)C3)c1C(F)(F)F [Example 276]	92.7
O=C1NC2(CCO1)CN(C(=O)N1CC3(CCC(OCC4(C(F)(F)F)CC4)CC3)C1)C2 [Example 130, 2-[7-[[1-(trifluoromethyl)cyclopro-pyl]methoxy]-2-azaspiro[3.5]nonane-2-carbonyl]-7-oxa-2,5-diazaspiro[3.5]nonan-6-one]	186
O=C1NC2(CO1)CN(C(=O)N1CC3(CCN(Cc4ccc(C(F)(F)F)cc4F)CC3)C1)C2 [Example 135]	1.01
2-[6-[[6- (trifluoromethyl)pyrida- zin-3-y1]methyl]-2- azaspiro[3.3]heptane-2- carbonyl]-2,5- diazaspiro[3.4]octan-6- one [Example 12]	36.4
O=C1NC2(CO1)CN(C(=O)N1CC3(CN(Cc4ccc(C(F)(F)F)nn4)C3)C1)C2 [Example 159, 2-[6-[[6-(trifluoromethyl)pyrida-zin-3-yl]methyl]-2,6-diazaspiro[3.3]heptane-2-carbonyl]-7-oxa-2,5-diazaspiro[3.4]octan-6-one]	109
O=C1COCC2(CN(C(=O)N3CC4(CC(Cc5ncc(C(F)(F)F)cc5F)C4)C3)C2)N1 [Example 171, 2-[6-[[3-fluoro-5-(trifluoromethyl)-2-pyridyl]methyl]-2-azaspiro[3.3]heptane-2-carbonyl]-8-oxa-2,5-diazaspiro[3.5]nonan-6-one]	1.42
O=C1NC2(CO1)CN(C(=O)N1CC3(CN(Cc4ncc(F)cc4F)C3)C1)C2 [Example 162, 2-[6-[(3,5-difluoro-2-pyridyl)methyl]-2,6-diazaspiro[3.3]heptane-2-carbonyl]-7-oxa-2,5-diazaspiro[3.4]octan-6-one]	15.1
O=C1CCCC2(CN(C(=O)N3CC4(CCN(Cc5cccc(S(=O)(=O)C(F)(F)F)c5)C4)C3)C2)N1 [Example 266, 2-[7-[[3-(trifluoromethylsulfonyl)phenyl]methyl]-2,7-diazaspiro[3.4]octane-2-carbonyl]-2,5-diazaspiro[3.5]nonan-6-one]	1380
O=C1NC2(CO1)CN(C(=O)N1CC3(C1)CN(S(=O)(=O)c1ccccc1OC(F)(F)F)C3)C2 [Example 190, 2-[2-[2-(trifluoromethoxy)phenyl]sulfonyl-2,6-diazaspiro[3.3]heptane-6-carbonyl]-7-oxa-2,5-diazaspiro[3.4]octan-6-one]	10.4
N#Cc1cc(CC2CC3(C2)CN(C(=O)N2CC4(COC(=O)N4)C2)C3)ccc1C(F)(F)F [Example 18, 5-[[2-(6-keto-7-oxa-2,5-diazaspiro[3.4]octane-2-carbonyl)-2-azaspiro[3.3]heptan-6-yl]methyl]-2-(trifluoromethyl)benzoni-trile]	0.02
O=C1NCC2(CN(C(=O)N3CC4(CCC(OCC5(C(F)(F)F)CC5)CC4)C3)C2)N1 [Example 127, 2-[7-[[1-(trifluoromethyl)cyclopro-pyl]methoxy]-2-azaspiro[3.5]nonane-2-carbonyl]-2,5,7-triazaspiro[3.4]octan-6-one]	30.8
Cn1ncc(CC2CC3(C2)CN(C(=O)N2CC4(CCC(=O)N4)C2)C3)c1C(F)(F)F [Example 165]	0.52
O=C1COCC2(CN(C(=O)N3CC4(CCN(S(=O)(=O)c5ccc(C(F)(F)F)cc5F)CC4)C3)C2)N1 [Example 141, 2-[7-[2-fluoro-4-(trifluoromethyl)phenyl]sulfonyl-2,7-diazaspiro[3.5]nonane-2-carbonyl]-8-oxa-2,5-diazaspiro[3.5]nonan-6-one]	217
